Assay results reported in patent US6784204B2, “Antibiotic cytosporacin” (Wyeth Holdings Corporation, Five Giralda Farms, priority 2002, dated 2004).
Values after ≈ are worked out from the molar mass of the structure shown.

Legend:
Experiment in all cases: MIC by broth dilution method
Format in all cases: cell-based
[1] = test system: Escherichia coli 442 (GC4559); conditions: 18 hours at 35° C.
Experimental: (§1) The minimum inhibitory concentration (MIC), the lowest concentration of the antibiotic which inhibits growth of the test organism, is determined by the broth dilution method using Muller-Hinton II […] (Baltimore Biological Laboratories) following the recommendations of the National Committee for Clinical Laboratory Standards [Methods for dilution antimicrobial susceptibility tests for bacteria that grow aerobically. Approved standard M7-A2. National Committee for Clinical Laboratory Standards, Villanova, Pa].
(§2) An inoculum level of 5×10^5 CFU/ml, and a range of antibiotic concentrations (256-1.0 μg/ml) is used. The MIC is determined after the microtiter plates are incubated for 18 hours at 35° C. in an ambient air incubator. The test organisms comprise a spectrum of Gram-positive bacteria comprised of Staphylococcus sp., Enterococcus sp., Gram-negative bacterium Escherichia coli, and the yeast Candida albicans. These organisms include recent clinical isolates that are resistant to piperacillin and vancomycin.

[2] = test system: Staphylococcus aureus 375 (ATCC3538p); conditions: 18 hours at 35° C.
Experimental: as §1, §2

[3] = test system: Escherichia coli 389 (GC4560 imp); conditions: 18 h
Experimental: as §1, §2

[4] = test system: Candida albicans 54 (CA300); conditions: 18 hours at 35° C.
Experimental: as §1, §2

[5] = test system: Enterococcus faecium 436 (ID3151); conditions: 18 hours at 35° C.
Experimental: as §1, §2

[6] = test system: Enterococcus faecium 379 (NC12204, vancomycin-resistant); conditions: 18 hours at 35° C.
Experimental: as §1, §2

[7] = test system: Staphylococcus aureus 310 (SSC8224, methicillin-resistant); conditions: 18 hours at 35° C.
Experimental: as §1, §2

[8] = test system: Bacillus subtilis 327 (BGSC-1A1); conditions: 18 hours at 35° C.

C=C1OC(=O)c2c(cc3c(C4=C5C=C(O)C(=O)C(O)=C5C(CCCCCCC)OC4=O)c(O)cc(O)c3c2O)C1O (centres unmarked) [Cytosporacin]
MIC [1]: 256 µg/mL (≈ 453 µM) | MIC [2]: 32 µg/mL (≈ 56.7 µM) | MIC [3]: 64 µg/mL (≈ 113 µM) | MIC [4]: > 256 µg/mL | MIC [5]: 16 µg/mL (≈ 28.3 µM) | MIC [6]: 64 µg/mL (≈ 113 µM) | MIC [7]: 32 µg/mL (≈ 56.7 µM) | MIC [8]: 32 µg/mL (≈ 56.7 µM)
